Our source for the CLint scaled values is ChEMBL document CHEMBL4842341, “Discovery of IACS-9779 and IACS-70465 as Potent Inhibitors Targeting Indoleamine 2,3-Dioxygenase 1 (IDO1) Apoenzyme” (J Med Chem, 2021).

By CLint scaled is commonly meant the capacity of the preparation to metabolise the compound, expressed as a volume cleared per time. Lower therefore signals greater metabolic stability.

The nature of the first data set: in vitro. The settings on record: rat, liver microsomes. (In general: Liver microsomes are vesicles of endoplasmic reticulum, rich in cytochrome P450 enzymes.)
Take `O=C1CC(c2c[nH]c3ccc(F)cc23)C(=O)N1` (centres undefined) [PF-06840003]: the CLint scaled at 0.75 h, 1 µM turned out to be 7.2 mL/min/kg.

The nature of the next data set: in vitro. The settings on record: human, liver microsomes.
As to `CCC(NC(=O)c1ccc(Cl)cc1)[C@@H]1[C@@H]2C[C@@H](Oc3ccnc4ccc(F)cc34)C[C@@H]21` (some centres undefined), the CLint scaled at 0.75 h, 1 µM was 490 mL/min/kg.
Take `CCC(NC(=O)c1ccc(Cl)cc1)[C@H]1[C@@H]2C[C@@H](n3cnc(C4CC4)n3)C[C@@H]21` (some centres undefined): the CLint scaled at 0.75 h, 1 µM is 2 mL/min/kg.
The molecule `CCC(NC(=O)c1ccc(Cl)cc1)[C@H]1[C@@H]2C[C@@H](n3cnc4cccc(F)c4c3=O)C[C@@H]21` (some centres undefined) registered a CLint scaled at 0.75 h, 1 µM of 0.7 mL/min/kg.
The same measure, in the same setting: for `CCC(NC(=O)c1ccc(Cl)cc1)[C@H]1[C@@H]2C[C@@H](n3cnc4cc(F)cc(F)c43)C[C@@H]21` (some centres undefined) the value was 5.5 mL/min/kg; for `O=C(NC[C@H]1[C@H]2C[C@H](Oc3ccnc4ccc(F)cc34)C[C@@H]12)c1ccc(Cl)cc1`, 227 mL/min/kg.
In turn, `CCC(NC(=O)c1ccc(Cl)cc1)[C@H]1[C@@H]2C[C@@H](n3cnc4ncc(C#N)cc43)C[C@@H]21` (some centres undefined) came in with a CLint scaled at 0.75 h, 1 µM of 4.5 mL/min/kg.
Consider `CCC(NC(=O)c1ccc(Cl)cc1)[C@H]1[C@@H]2C[C@@H](NC(=O)c3cncc(F)c3)C[C@@H]21` (some centres undefined), for which the CLint scaled at 0.75 h, 1 µM was 13 mL/min/kg.
Turning to `CCC(NC(=O)c1ccc(Cl)cc1)[C@H]1[C@@H]2C[C@@H](n3cnc4ccc(F)c(F)c43)C[C@@H]21` (some centres undefined), the intrinsic metabolic clearance (CLint scaled) at 0.75 h, 1 µM is 18 mL/min/kg.
With `CCC(NC(=O)c1ccc(Cl)cc1)[C@H]1[C@@H]2C[C@@H](n3cnc4cc(F)cnc43)C[C@@H]21` (some centres undefined), the CLint scaled at 0.75 h, 1 µM was 0.46 mL/min/kg. Against the preceding molecule, the CLint scaled at 0.75 h, 1 µM is about 39-fold lower.
In turn, `CCC(NC(=O)c1ccc(Cl)cc1)[C@H]1[C@@H]2C[C@@H](n3cnc4ccncc43)C[C@@H]21` (some centres undefined) yielded a CLint scaled at 0.75 h, 1 µM of 8.8 mL/min/kg.
For `CCC(NC(=O)c1ccc(Cl)cc1)[C@H]1[C@@H]2C[C@@H](n3cnc4ccc(F)cc43)C[C@@H]21` (some centres undefined), the CLint scaled at 0.75 h, 1 µM came to 11.8 mL/min/kg.
The same measure, in the same setting: for `CCC(NC(=O)c1ccc(Cl)cc1)[C@@H]1[C@@H]2C[C@H](Oc3ccnc4cc(F)ccc34)C[C@@H]21` (some centres undefined) the value was 32 mL/min/kg.
Molecule `CCC(NC(=O)c1ccc(Cl)cc1)[C@@H]1[C@@H]2C[C@H](Oc3ccnc4ccncc34)C[C@@H]21` (some centres undefined) yielded a CLint scaled at 0.75 h, 1 µM of 54 mL/min/kg.
`O=C(NC[C@@H]1[C@H]2C[C@@H](Oc3ccnc4ccc(F)cc34)C[C@@H]12)c1ccc(Cl)cc1` showed a CLint scaled at 0.75 h, 1 µM of 38 mL/min/kg.
In turn, `Fc1cc2ncn([C@H]3C[C@@H]4[C@@H](CNC(c5ccc(Cl)cc5)C(F)(F)F)[C@@H]4C3)c2cc1F` (some centres undefined) showed a CLint scaled at 0.75 h, 1 µM of 100 mL/min/kg.
`CCC(NC(=O)c1ccc(Cl)cc1)[C@@H]1[C@@H]2C[C@H](Oc3ccnc4cccnc34)C[C@@H]21` (some centres undefined) came in with a CLint scaled at 0.75 h, 1 µM of 14 mL/min/kg.
Molecule `O=C(NC[C@H]1[C@H]2C[C@@H](Oc3ccnc4ccc(F)cc34)C[C@@H]12)c1ccc(Cl)cc1` showed a CLint scaled at 0.75 h, 1 µM of 39 mL/min/kg.
As for `O=C1CC(c2c[nH]c3ccc(F)cc23)C(=O)N1` (centres undefined) [PF-06840003], the CLint scaled at 0.75 h, 1 µM was 2.9 mL/min/kg. Compared with the last molecule, the CLint scaled at 0.75 h, 1 µM is about 13-fold lower.
